# Source: patent US7723473B2, “Peptide antagonists of TGF-beta family members and therapeutic uses thereof” (St. Louis University, priority 1997, dated 2010)
# Experiments:
# [1] = tested on: TGF-β receptors; assay: Inhibition of specific binding of 125I-TGF-β1 to TGF-β receptors in mink lung epithelial cells; conditions: peptide at 34 μM
# Method: Specific binding of ^125I-labeled TGF-β1, TGF-β2, and TGF-β3 (^125I-TGF-β1, ^125I-TGF-β2, and ^125I-TGF-β3) to TGF-β receptors in mink lung epithelial cells. ^125I-TGF-β1, ^125I-TGF-β2, and ^125I-TGF-β3 were prepared by iodination of TGF-β1, TGF-β2, and TGF-β3 with Na^125I as described previously (Ref. 7). The specific radioactivities of ^125I-TGF-β1, ^125I-TGF-β2, and ^125I-TGF-β3 were 1-3×10^5 cpm/ng. Mink lung epithelial cells were grown on 24-well clustered dishes to near confluence in Dulbecco's modified Eagle medium (DMEM) containing 10% fetal calf serum. The epithelial cells were incubated with 0.1 nM ^125I-TGF-β1, ^125I-TGF-β2, or ^125I-TGF-β3 both with and without 100-fold excess of unlabeled TGF-β1, TGF-β2, or TGF-β3 in binding buffer (Ref. 7). After 2.5 hr at 0° C., the cells were washed two times with binding buffer, and the cell-associated radioactivity was determined. […] All experiments were carried out in triplicate cell cultures.
# [2] = target: T1, α2-macroglobulin (Homo sapiens, UniProt P01023); conditions: Ref. 22; cited from earlier work
# T1 sequence (P01023 24-1474): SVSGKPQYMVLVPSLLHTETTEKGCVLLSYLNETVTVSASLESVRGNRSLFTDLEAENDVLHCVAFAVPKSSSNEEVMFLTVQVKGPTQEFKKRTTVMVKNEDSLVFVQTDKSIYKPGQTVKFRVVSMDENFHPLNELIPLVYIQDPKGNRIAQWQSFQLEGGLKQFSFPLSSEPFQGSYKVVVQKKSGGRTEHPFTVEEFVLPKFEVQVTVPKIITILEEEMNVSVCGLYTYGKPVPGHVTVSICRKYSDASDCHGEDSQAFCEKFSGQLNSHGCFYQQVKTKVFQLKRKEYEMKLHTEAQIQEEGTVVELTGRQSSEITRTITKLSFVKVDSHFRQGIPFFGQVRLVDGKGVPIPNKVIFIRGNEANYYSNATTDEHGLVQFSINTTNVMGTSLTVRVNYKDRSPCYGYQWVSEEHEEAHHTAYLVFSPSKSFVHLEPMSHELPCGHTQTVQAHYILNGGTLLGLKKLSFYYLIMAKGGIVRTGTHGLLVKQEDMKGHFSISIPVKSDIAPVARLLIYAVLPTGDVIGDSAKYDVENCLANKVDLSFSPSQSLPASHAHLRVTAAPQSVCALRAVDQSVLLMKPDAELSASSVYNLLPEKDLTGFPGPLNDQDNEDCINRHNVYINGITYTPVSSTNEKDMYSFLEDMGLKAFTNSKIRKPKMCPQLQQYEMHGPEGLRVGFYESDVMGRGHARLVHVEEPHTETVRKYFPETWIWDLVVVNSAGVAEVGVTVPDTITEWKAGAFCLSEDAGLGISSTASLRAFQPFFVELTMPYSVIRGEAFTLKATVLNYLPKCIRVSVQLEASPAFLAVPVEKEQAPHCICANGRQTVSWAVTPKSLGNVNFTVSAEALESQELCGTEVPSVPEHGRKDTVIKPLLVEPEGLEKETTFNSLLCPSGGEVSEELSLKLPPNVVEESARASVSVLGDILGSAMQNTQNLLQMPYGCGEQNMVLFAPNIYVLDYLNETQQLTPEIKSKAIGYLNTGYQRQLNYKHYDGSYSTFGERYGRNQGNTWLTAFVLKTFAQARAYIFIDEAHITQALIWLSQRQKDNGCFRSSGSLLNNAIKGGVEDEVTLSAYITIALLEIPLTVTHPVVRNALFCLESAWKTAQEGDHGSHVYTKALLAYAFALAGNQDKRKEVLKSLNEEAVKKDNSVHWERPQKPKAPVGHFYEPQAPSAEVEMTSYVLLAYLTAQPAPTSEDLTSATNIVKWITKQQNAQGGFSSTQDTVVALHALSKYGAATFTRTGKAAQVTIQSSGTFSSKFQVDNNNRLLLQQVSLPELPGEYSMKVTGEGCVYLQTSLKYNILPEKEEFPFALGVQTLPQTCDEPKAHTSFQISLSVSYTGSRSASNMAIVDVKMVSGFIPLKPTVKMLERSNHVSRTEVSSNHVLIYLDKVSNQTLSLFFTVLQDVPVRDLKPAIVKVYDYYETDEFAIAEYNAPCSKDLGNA
# [3] = Observation of deleterious effects in treated animals; assay type: in vivo, pig, rabbit; conditions: topical, any animal
# Method: Burn wound model. Four pigs weighing 20-25 kg were anesthetized by intramuscular injection of ketamine (5 mg/kg), strenil® (cazaporonum) (20 mg/kg) and atropine (5 mg/kg). Six uniform burn wounds (110° C., 30 sec) were then made symmetrically on the back of each pig using a modified soldering iron (Ref. 15) with a flat contact area of 20 cm^2. […] After wounding, a thin layer of Intrasite®) gel containing either peptide β1^25 (41-65), buffer or nothing else was applied to the wounds. All wounds were dressed with paraffin gauze. The dressing was changed every two days for the first 10 days and twice a week for the next 30 days. Gel comprising peptide β1^25 (41-65) and control gel were applied and wound measurements were made at each dressing change.
# Excision wound model. Four pigs received intramuscular injection of ketamine, strenil® and atropine as described above. Six excision injuries were generated by removing full-thickness sections of skin (3×3 cm) from standardized sites on the back of each animal using a scapel. Three rabbits, were anesthetized by intramuscular injection of ketamine (5 mg/kg). Three excision injuries were produced in each by removing full-thickness sections of skin (0.5×1 cm) from each ear. […]
# [4] = tested on: mink lung epithelial cells; assay: Mink lung epithelial cell growth measured by DNA synthesis without added TGF-β1 (agonist activity); assay type: cell-based
# Method: [Methyl-^3H]thymidine Incorporation—Mink lung epithelial cells grown on 24-well clustered dishes were incubated with various concentrations of TGF-β1 in the presence and absence of peptide β1^25 (41-65) or with various concentrations of peptide β1^25 (41-65)-CA, and peptide β1^25 (41-65)-BSA in DMEM containing 0.1% fetal calf serum. After 16 hr at 37° C., the cells were pulsed with 1 μCi/ml of [methyl-^3H]thymidine for 4 hr. The cells were then washed twice with 1 ml of 10% trichloroacetic acid and once with 0.5 ml of ethanol:ether (2:1, v/v). The cells were then dissolved in 0.4 ml of 0.2 N NaOH and counted with a liquid scintillation counter.
sequence,measurement,setting,value
ANFCLGPCPYIWSLDTQYSKVLALY [peptide β1^25 (41-65)],inhibition of 125I-TGF-β1 binding to TGF-β receptors,[1],completely inhibited
same,"complex formation between α2-macroglobulin and growth factors, cytokines and hormones",[2],block complex formation
same,deleterious effects,[3],no apparent deleterious effects
same,effect on DNA synthesis in the absence of TGF-β1,[4]; 0.1 μM to 36 μM peptide,did not have an effect
same,reversal of growth inhibition induced by 0.2 μM β1^25 (41-65)-CA,"[4]; 10 μM peptide, data not shown",abolished
